The results in this text go back to patent US6387905B2, “Compounds useful for inhibition of farnesyl protein transferase” (Schering Corporation, priority 1996, dated 2002).

Assay [1] concerns the target farnesyl protein transferase (FPT), H-ras (Homo sapiens, UniProt P49354+P49356). Nature of the assay: FPT IC50 (H-ras), inhibition of farnesyl protein transferase, in vitro enzyme assay. The assay is classed as biochemical. Here is the method: (§1) FPT IC50 (inhibition of farnesyl protein transferase, in vitro enzyme assay) and COS Cell IC50 (Cell-Based Assay) were determined following the assay procedures described in WO 95/10516, published Apr. 20, 1995. GGPT IC50 (inhibition of geranylgeranyl protein transferase, in vitro enzyme assay), Cell Mat Assay, and anti-tumor activity (in vivo anti-tumor studies) could be determined by the assay procedures described in WO 95/10516. The disclosure of WO 95/10516 is incorporated herein by reference thereto.

Assay [2] deals with COS Cell. In words: COS Cell IC50 (Cell-Based Assay). Here is the method: as §1
Assay [3] deals with Human tumor cells. In words: Soft Agar Assay (anchorage-independent growth). The assay is classed as cell-based. The following applies: Homo sapiens. Here is the method: Anchorage-independent growth is a characteristic of tumorgenic cell lines. Human tumor cells are suspended in growth medium containing 0.3% agarose and an indicated concentration of a farnesyl transferase inhibitor. The solution is overlayed onto growth medium solidified with 0.6% agarose containing the same concentration of farnesyl transferase inhibitor as the top layer. After the top layer is solidified, plates are incubated for 10-16 days at 37° C. under 5% CO2 to allow colony outgrowth. After incubation, the colonies are stained by overlaying the agar with a solution of MTT (3-[4,5-dimethyl-thiazol-2-yl]-2,5-diphenyltetrazolium bromide, Thiazolyl blue) (1 mg/mL in PBS). Colonies can be counted and the IC50's can be determined.

Assay [4] addresses farnesyl protein transferase (FPT), K-ras (Homo sapiens, UniProt P49354+P49356). In words: FPT IC50 (K-ras), inhibition of farnesyl protein transferase, in vitro enzyme assay. The assay is classed as biochemical. As to the method: as §1
The mark [5] stands for this setting: COS, Table 5, read-out: Cos Cell IC50.
Where [6] appears, read: Table 5, read-out: Soft Agar IC50.
Where [7] appears, read: Table 3, H-ras, read-out: FPT IC50 (nM) (H-ras).
Setting [8] is: H-ras, read-out: FPT IC50 (H-ras).
Setting [9] is: COS, read-out: Cos Cell IC50, Table 5.
Setting [10] is: read-out: Soft Agar IC50, Table 5.

Molecules are shown by their SMILES. Several values for one entry are separate records, joined by “and”; a condition that tells them apart may be missing. Identical values can stand only once. Like-named read-outs stand apart in the source and are kept apart here.

With `O=C(Cc1cccs1)N1CCC(CC(=O)N2CCC([C@H]3c4ncc(Br)cc4CCc4cc(Cl)cc(Br)c43)CC2)CC1` [Cmpd 82.0-B], the IC50 was 7.1 nM in assay [1] (Table 4, read-out: FPT IC50); < 10 nM in assay [2] (setting [5]); > 500 nM in assay [3] (setting [6]).
On the same counts, the results for `O=C(CC1CCOCC1)N1CCC(CC(=O)N2CCC([C@H]3c4ncc(Br)cc4CCc4cc(Cl)cc(Br)c43)CC2)CC1` [Cmpd 85.0-B] are 5 nM, 14 nM and 333 nM.
Regarding `NCCC(=O)N1CCC(CC(=O)N2CCC([C@H]3c4ncc(Br)cc4CCc4cc(Cl)cc(Br)c43)CC2)CC1` [Cmpd 88.0-B], the IC50 was 2.2 nM in assay [1] (Table 4, read-out: FPT IC50); 23 nM in assay [2] (setting [5]); > 500 nM in assay [3] (setting [6]).
As to `NC(=O)CC(O)CC(=O)N1CCC(CC(=O)N2CCC([C@H]3c4ncc(Br)cc4CCc4cc(Cl)cc(Br)c43)CC2)CC1` (some centres unmarked) [Cmpd 92.0-B], the IC50 in assay [1] (Table 4, read-out: FPT IC50) was 2.2 nM; in assay [2] (setting [5]), 15 nM; in assay [3] (setting [6]) it was 45 nM.
For `O=C(CO/N=C/c1ccccc1O)N1CCC(CC(=O)N2CCC([C@H]3c4ncc(Br)cc4CCc4cc(Cl)cc(Br)c43)CC2)CC1` [Cmpd 95.0-B], in that order: 8.3 nM, 11 nM and > 500 nM.
On the same counts, the results for `NC(=O)CCCC(=O)N1CCC(CC(=O)N2CCC([C@H]3c4ncc(Br)cc4CCc4cc(Cl)cc(Br)c43)CC2)CC1` [Cmpd 114.0-B] are 3.9 nM, 35 nM and 395 nM.
For `O=C(CC1CCN(C(=O)CC2COCCO2)CC1)N1CCC([C@H]2c3ncc(Br)cc3CCc3cc(Cl)cc(Br)c32)CC1` (some centres unmarked) [Cmpd 114.2-B], in that order: 3.9 nM, 10 nM and 75 nM.
On to `O=C(CC1CCN(C(=O)CC2CCCCO2)CC1)N1CCC([C@H]2c3ncc(Br)cc3CCc3cc(Cl)cc(Br)c32)CC1` (some centres unmarked) [Cmpd 114.3-B], for which the IC50 was 7.2 nM in assay [1] (Table 4, read-out: FPT IC50); 11 nM in assay [2] (setting [5]); 432 nM in assay [3] (setting [6]).
For `O=C(CC1CCN(C(=O)CC2CCCO2)CC1)N1CCC([C@H]2c3ncc(Br)cc3CCc3cc(Cl)cc(Br)c32)CC1` (some centres unmarked) [Cmpd 114.4-B], in that order: 7.8 nM, 10 nM and 363 nM.
Regarding `CC(C)(C)OC(=O)NCC(=O)N1CCC(CC(=O)N2CCC([C@H]3c4ncc(Br)cc4CCc4cc(Cl)cc(Br)c43)CC2)CC1` [Example 1], the IC50 was found to be 43.2 nM in assay [4] and 12.3 nM in assay [1] (setting [7]).
For `C[C@H](NC(=O)OC(C)(C)C)C(=O)N1CCC(CC(=O)N2CCC([C@H]3c4ncc(Br)cc4CCc4cc(Cl)cc(Br)c43)CC2)CC1` [Example 3], the IC50 in assay [4] worked out at 30 nM; in assay [1] (setting [7]), 6.3 nM.
As for `C[C@H](N)C(=O)N1CCC(CC(=O)N2CCC([C@H]3c4ncc(Br)cc4CCc4cc(Cl)cc(Br)c43)CC2)CC1` [Example 4], the IC50 in assay [4] turned out to be 23.8 nM; in assay [1] (setting [8]), 5.2 nM; in assay [2] (COS, Table 3, read-out: COS Cell IC50) it was 140 nM; in assay [2] (setting [5]), 140 nM.
Take `C[C@@H](NC(=O)OC(C)(C)C)C(=O)N1CCC(CC(=O)N2CCC([C@H]3c4ncc(Br)cc4CCc4cc(Cl)cc(Br)c43)CC2)CC1` [Example 5]: the values for the 50% inhibitory concentration (IC50) in assay [4] and in assay [1] (setting [7]) were 22 nM and 8.4 nM, respectively.
`O=C(CC1CCN(C(=O)CN2CCS(=O)(=O)CC2)CC1)N1CCC([C@H]2c3ncc(Br)cc3CCc3cc(Cl)cc(Br)c32)CC1` [Example 6.0-B] returned an IC50 in assay [4] of 14.5 nM.
In assay [4], `O=C(CCN1CCCCC1)N1CCC(CC(=O)N2CCC([C@H]3c4ncc(Br)cc4CCc4cc(Cl)cc(Br)c43)CC2)CC1` [Example 7.0-B] came in with a 50% inhibitory concentration (IC50) of 15.4 nM.
On the same count and under the same terms, in the case of `CC(C)=NOCC(=O)N1CCC(CC(=O)N2CCC([C@H]3c4ncc(Br)cc4CCc4cc(Cl)cc(Br)c43)CC2)CC1` [Example 9.0-B] it was 41 nM.
The same measure, in the same setting: in the case of `Cc1nccn1CC(=O)N1CCC(CC(=O)N2CCC([C@H]3c4ncc(Br)cc4CCc4cc(Cl)cc(Br)c43)CC2)CC1` [Example 10.0-B] it was 15.8 nM; in that of `Cc1cn(CC(=O)N2CCC(CC(=O)N3CCC([C@H]4c5ncc(Br)cc5CCc5cc(Cl)cc(Br)c54)CC3)CC2)cn1` [Example 11.0-B], 12.6 nM.
Take `N[C@@H](Cc1c[nH]cn1)C(=O)N1CCC(CC(=O)N2CCC([C@H]3c4ncc(Br)cc4CCc4cc(Cl)cc(Br)c43)CC2)CC1` [Example 11]: the IC50 in assay [4] was found to be 49 nM; in assay [1] (setting [7]), 15 nM.
`O=C(CC1CCN(C(=O)Cn2cnc3ccccc32)CC1)N1CCC([C@H]2c3ncc(Br)cc3CCc3cc(Cl)cc(Br)c32)CC1` [Example 12.0-B] displayed an IC50 in assay [4] of 26.7 nM.
In assay [4], `O=C(CC1CCN(C(=O)Cn2cnc3cccnc32)CC1)N1CCC([C@H]2c3ncc(Br)cc3CCc3cc(Cl)cc(Br)c32)CC1` [Example 13.0-B] had an IC50 of 19.7 nM.
In the case of `O=C(O)CC(=O)N1CCC(CC(=O)N2CCC([C@H]3c4ncc(Br)cc4CCc4cc(Cl)cc(Br)c43)CC2)CC1` [Example 14.0-B], the IC50 in assay [1] (Table 4, read-out: FPT IC50) was 0.9 nM and 1.9 nM; in assay [2] (setting [9]), 250 nM; in assay [2] (read-out: Cos Cell IC50, Table 5), 200 nM; in assay [3] (setting [10]) it was > 500 nM.
For `CCOC(=O)CC(CC(=O)N1CCC(CC(=O)N2CCC(C3c4ncc(Br)cc4CCc4cc(Cl)cc(Br)c43)CC2)CC1)OC(C)=O` (centres unmarked) [Example 16.0-B], the IC50 was determined as 5.3 nM in assay [1] (Table 4, read-out: FPT IC50); 16 nM in assay [2] (setting [5]); 90 nM in assay [3] (setting [6]).
For `CC(C)(C)OC(=O)N1CC(O)CC1C(=O)N1CCC(CC(=O)N2CCC(C3c4ncc(Br)cc4CCc4cc(Cl)cc(Br)c43)CC2)CC1` (centres unmarked) [Example 24.0-B], in that order: 0.7 nM, 100 nM and > 500 nM.
On the same counts, the results for `O=C(O)CC(O)CC(=O)N1CCC(CC(=O)N2CCC([C@H]3c4ncc(Br)cc4CCc4cc(Cl)cc(Br)c43)CC2)CC1` (some centres unmarked) [Example 74.0-B] are 1.7 nM, 40 nM and 500 nM.
Turning to `O=C(O)CCC(=O)N1CCC(CC(=O)N2CCC([C@H]3c4ncc(Br)cc4CCc4cc(Cl)cc(Br)c43)CC2)CC1` [Example 78], the IC50 was 1.2 nM in assay [1] (Table 4, read-out: FPT IC50); 75 nM in assay [2] (setting [9]); > 500 nM in assay [3] (setting [10]).
On the same counts, the results for `O=C(O)CCCCCC(=O)N1CCC(CC(=O)N2CCC([C@H]3c4ncc(Br)cc4CCc4cc(Cl)cc(Br)c43)CC2)CC1` [Example 80] are 1.4 nM, 25 nM and 250 nM.
For `O=C(O)CCCCC(=O)N1CCC(CC(=O)N2CCC([C@H]3c4ncc(Br)cc4CCc4cc(Cl)cc(Br)c43)CC2)CC1` [Example 81], in that order: 3.6 nM, 30 nM and 480 nM.
With `CC(C)(C)OC(=O)NCCCC(=O)N1CCC(CC(=O)N2CCC([C@H]3c4ncc(Br)cc4CCc4cc(Cl)cc(Br)c43)CC2)CC1` [Example 89.0-B], the 50% inhibitory concentration (IC50) was 8.7 nM in assay [1] (Table 4, read-out: FPT IC50); 550 nM in assay [2] (setting [5]); > 500 nM in assay [3] (setting [6]).
Turning to `COC(=O)C(=O)N1CCC(CC(=O)N2CCC([C@H]3c4ncc(Br)cc4CCc4cc(Cl)cc(Br)c43)CC2)CC1` [Example 104.0-B], the half-inhibitory concentration (IC50) in assay [1] (setting [8]) is 4.6 nM; in assay [2] (setting [5]), 40 nM; in assay [3] (setting [6]), > 500 nM.

In general, IC50 refers to the midpoint of a concentration-inhibition curve.
